Measurements taken from US20070142478A1, “COMBINATION ANTIMICROBIAL COMPOSITION AND METHOD OF USE” (priority 2005, published 2007).
“Also recorded” adds a separate entry of the source.

How the values were obtained:
Cytomegalovirus = assay: Viral Suspension Assay, Cytomegalovirus; format: cell-based; settings: 30 ppm and 99 ppm
Protocol: (§1) The Viral Suspension Assay was used to evaluate the antiviral properties of Alexidine against Adenovirus Type-4, Adenovirus Type-8 and Adenovirus Type-19 and Cytomegalovirus when exposed in suspension for 1, 2, 5, and 10 minutes. The presence of virus (infectivity) was determined by monitoring the virus specific cytopathic effect (CPE) on an appropriate indicator cell line, rabbit kidney. Results are reported as Percent (%) Reduction in virus titer as compared to the corresponding virus control titer (Table 1). The titer of the virus controls were 7.5 log10 following the one minute exposure time; 7.0 log10 following the two minute exposure time; and 7.75 log10 following both the five and ten minute exposure times.

Adenovirus Type-8 = assay: Viral Suspension Assay, Adenovirus Type-8; format: cell-based
Protocol: as §1

Adenovirus Type-19 = assay: Viral Suspension Assay, Adenovirus Type-19; format: cell-based
Protocol: as §1

[1] = tested on: Herpes simplex virus type 1; assay: Viral Suspension Assay, HSV-1; format: cell-based; settings: 30 ppm and 99 ppm
Protocol: as §1, with “Herpes simplex virus type 1” for “Adenovirus Type-4, Adenovirus Type-8 and Adenovirus Type-19 and Cytomegalovirus”

Adenovirus Type-4 = assay: Viral Suspension Assay, Adenovirus Type-4; format: cell-based
Protocol: as §1

Aspergillus = settings: 0.02%; cited from earlier work

| Molecule | Effectiveness against Cytomegalovirus (in words) (Cytomegalovirus) | Effectiveness against Adenovirus Type-8 (in words) (Adenovirus Type-8; 30 ppm and 99 ppm) | Percent Reduction (%) (Adenovirus Type-8; Alexidine 30 ppm, 10 minutes) | Percent Reduction (%) (Adenovirus Type-8; Alexidine 99 ppm, 5 minutes) | Percent Reduction (%) (Adenovirus Type-8; Alexidine 99 ppm, 10 minutes) | Percent Reduction (%) (Adenovirus Type-19; Alexidine 30 ppm and 99 ppm, 1, 2, 5 and 10 minutes) | Effectiveness against Adenovirus Type-19 (in words) (Adenovirus Type-19; particular strain tested) | Effectiveness against HSV-1 (in words) [1] | Effectiveness against Adenovirus Type-4 (in words) (Adenovirus Type-4; 30 ppm and 99 ppm) | Percent Reduction (%) (Adenovirus Type-4; Alexidine 30 ppm, 1 minute) | Percent Reduction (%) (Adenovirus Type-4; Alexidine 30 ppm, 10 minutes) | Percent Reduction (%) (Adenovirus Type-4; Alexidine 99 ppm, 1 minute) | Percent Reduction (%) (Adenovirus Type-4; Alexidine 99 ppm, 5 minutes) | Percent Reduction (%) (Adenovirus Type-4; Alexidine 99 ppm, 10 minutes) | Effectiveness in experimental Aspergillus keratitis (in words) (Aspergillus) |
| --- | --- | --- | --- | --- | --- | --- | --- | --- | --- | --- | --- | --- | --- | --- | --- |
| CCCCC(CC)CNC(=N)NC(=N)NCCCCCCNC(=N)NC(=N)NCC(CC)CCCC (stereo not drawn) [Alexidine, 1,1′-hexamethylene-bis[5-(2-ethylhexyl)biguanide]] | somewhat effective | somewhat effective | 90.0% | 90.0% | 90.0% | No reduction | did not appear to be effective | effective agents; also recorded: potent antimicrobial agent | somewhat effective | 43.8% | 68.4% | 68.4% | 43.8% | 68.4% | – |
| polyhexamethylene biguanide | – | – | – | – | – | – | – | – | – | – | – | – | – | – | moderately effective |
